# Laboratory results taken from ChEMBL document CHEMBL1201862, “PubChem BioAssay data set” (2004).
# Values joined by “and” are separate entries in the source; they are usually repeats but may differ in a detail not shown here. Equal entries are not always repeated.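 These data come from cells grown in 96-well plates and exposed to compound for 48 hours at five concentrations. GI50: concentration for 50% inhibition of growth.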 Active and inactive are the calls of the source. No stated cut-off is given here; in the data, active = GI50 up to about 1.1 µM and inactive = higher.
# Tests used:
# Assay in all cases: DTP human tumour cell line panel, 48 h
# K562 = system: K562
# HL-60 = system: HL-60
# HT-29 = system: HT-29
# CCRF-CEM = system: CCRF-CEM
# UACC-257 = system: UACC-257
# SK-OV-3 = system: SK-OV-3
# TK-10 = system: TK-10
# OVCAR-5 = system: OVCAR-5
# Malme-3M = system: Malme-3M
# SK-MEL-2 = system: SK-MEL-2
# M14 = system: M14
# RPMI-8226 = system: RPMI-8226
# SK-MEL-28 = system: SK-MEL-28
# NCI-H23 = system: NCI-H23
# SN12C = system: SN12C
# SF-268 = system: SF-268
# SNB-75 = system: SNB-75
# HCT-116 = system: HCT-116
# UACC-62 = system: UACC-62
# SNB-19 = system: SNB-19
Structure (SMILES),GI50 (K562),GI50 (HL-60),GI50 (HT-29),GI50 (CCRF-CEM),GI50 (UACC-257),GI50 (SK-OV-3),GI50 (TK-10),GI50 (OVCAR-5),GI50 (Malme-3M),GI50 (SK-MEL-2),GI50 (M14),GI50 (RPMI-8226),GI50 (SK-MEL-28),GI50 (NCI-H23),GI50 (SN12C),GI50 (SF-268),GI50 (SNB-75),GI50 (HCT-116),GI50 (UACC-62),GI50 (SNB-19)
OC(CBr)C(O)C(O)C(O)CBr (stereo not given),> 87.9 µM (inactive),8.73 µM (inactive) and 13.3 µM (inactive),> 100 µM (inactive) and > 56 µM (inactive),14.3 µM (inactive) and > 21.6 µM (inactive),> 69 µM (inactive) and > 64 µM (inactive),> 55.1 µM (inactive) and > 53.1 µM (inactive),> 100 µM (inactive),> 57 µM (inactive),> 100 µM (inactive) and > 85.5 µM (inactive),> 100 µM (inactive) and > 66.2 µM (inactive),28.1 µM (inactive),> 65.8 µM (inactive) and > 38.5 µM (inactive),> 92.7 µM (inactive),,,,,,,
COc1ccc(N2C(=O)C3c4[nH]c5c(C)cccc5c4C4CCC(C(C)C)CC4C3C2=O)cc1 (stereo not given),2.01 µM (inactive),,3.37 µM (inactive),,31 µM (inactive),16.4 µM (inactive),24.4 µM (inactive),14 µM (inactive),13.4 µM (inactive),16.7 µM (inactive),9.53 µM (inactive),1.88 µM (inactive),13 µM (inactive),17.3 µM (inactive),8.3 µM (inactive),6.01 µM (inactive),4.06 µM (inactive),9.73 µM (inactive),> 10 µM (inactive),22.1 µM (inactive)
C=COC(=O)N1C2CCCC(Cl)(C(C)=O)C1CC2 (stereo not given),> 100 µM (inactive),,> 100 µM (inactive),13.4 µM (inactive),> 100 µM (inactive),> 100 µM (inactive),> 100 µM (inactive),> 100 µM (inactive),87.5 µM (inactive),> 100 µM (inactive),> 100 µM (inactive),> 100 µM (inactive),> 100 µM (inactive),> 100 µM (inactive),> 100 µM (inactive),66.1 µM (inactive),28.2 µM (inactive),> 100 µM (inactive),> 100 µM (inactive),> 100 µM (inactive)
CCOC(=O)c1c(N2CCCC2)[nH]c(=O)c(C(c2cccs2)c2c(O)c(C(=O)OCC)c(N3CCCC3)[nH]c2=O)c1O,> 100 µM (inactive),,> 100 µM (inactive),78.2 µM (inactive),> 100 µM (inactive),> 100 µM (inactive),> 100 µM (inactive),> 100 µM (inactive),> 100 µM (inactive),> 100 µM (inactive),> 100 µM (inactive),54.6 µM (inactive),> 100 µM (inactive),> 100 µM (inactive),> 100 µM (inactive),> 100 µM (inactive),> 100 µM (inactive),> 100 µM (inactive),> 100 µM (inactive),> 100 µM (inactive)
N=C(N)SCCc1ccncc1,> 100 µM (inactive),> 100 µM (inactive),> 100 µM (inactive),65.8 µM (inactive),> 100 µM (inactive),> 100 µM (inactive),> 100 µM (inactive),> 100 µM (inactive),,> 100 µM (inactive),> 100 µM (inactive),> 100 µM (inactive),> 100 µM (inactive),> 100 µM (inactive),> 100 µM (inactive),> 100 µM (inactive),> 100 µM (inactive),> 100 µM (inactive),> 100 µM (inactive),> 100 µM (inactive)
COc1ccc(/C=C2/SC(c3c(O)ccc4ccccc34)N(NC(=O)CCCCCCCCC(=O)NN3C(=O)/C(=C\c4ccc(OC)c(OC)c4)SC3c3c(O)ccc4ccccc34)C2=O)cc1OC (stereo not given),1.2 µM (inactive),,3.65 µM (inactive),0.222 µM (active),2.37 µM (inactive),2.24 µM (inactive),10.4 µM (inactive),21.5 µM (inactive),2 µM (inactive),1.08 µM (active),0.897 µM (active),0.995 µM (active),2.98 µM (inactive),2.22 µM (inactive),3.94 µM (inactive),0.418 µM (active),8.53 µM (inactive),0.345 µM (active),1.56 µM (inactive),9.2 µM (inactive)
O=C(O)CSC(CC1(c2ccc(Cl)cc2)NC(=O)CS1)c1ccc(Cl)cc1 (stereo not given),> 100 µM (inactive),> 100 µM (inactive),> 100 µM (inactive),69.3 µM (inactive),65.9 µM (inactive),> 100 µM (inactive),> 100 µM (inactive),> 100 µM (inactive),,83.6 µM (inactive),> 100 µM (inactive),> 100 µM (inactive),,> 100 µM (inactive),> 100 µM (inactive),> 100 µM (inactive),> 100 µM (inactive),> 100 µM (inactive),85.1 µM (inactive),> 100 µM (inactive)
N#Cc1ccsc1Nc1ccccc1[N+](=O)[O-],> 100 µM (inactive),,,> 100 µM (inactive),> 100 µM (inactive),> 100 µM (inactive),,> 100 µM (inactive),> 100 µM (inactive),,> 100 µM (inactive),> 100 µM (inactive),> 100 µM (inactive),> 100 µM (inactive),> 100 µM (inactive),47 µM (inactive),> 100 µM (inactive),> 100 µM (inactive),> 100 µM (inactive),52.2 µM (inactive)
O=c1[nH]c(C2CCCCC2)nc2ccc(Cl)cc12,> 100 µM (inactive),,> 100 µM (inactive),,> 100 µM (inactive),> 100 µM (inactive),> 100 µM (inactive),> 100 µM (inactive),> 100 µM (inactive),> 100 µM (inactive),,> 100 µM (inactive),> 100 µM (inactive),> 100 µM (inactive),> 100 µM (inactive),> 100 µM (inactive),38.3 µM (inactive),> 100 µM (inactive),> 100 µM (inactive),> 100 µM (inactive)
O=C(Nc1ccc(F)cc1)c1cc2c(cc1Cl)Sc1nccn1S2(=O)=O,> 100 µM (inactive),,> 100 µM (inactive),> 100 µM (inactive),,94.6 µM (inactive),,> 100 µM (inactive),> 100 µM (inactive),> 100 µM (inactive),> 100 µM (inactive),,88.5 µM (inactive),,51.2 µM (inactive),37.3 µM (inactive),17.8 µM (inactive),35.6 µM (inactive),,40.1 µM (inactive)
C=C(Br)C(C)(Cl)CCC(Br)C(C)(C)Cl (stereo not given),46.3 µM (inactive),20.3 µM (inactive),34.6 µM (inactive),20.6 µM (inactive),28.9 µM (inactive),> 100 µM (inactive),> 100 µM (inactive),56.4 µM (inactive),23.4 µM (inactive),,32.9 µM (inactive),,> 100 µM (inactive),41.9 µM (inactive),40 µM (inactive),63.8 µM (inactive),,34.9 µM (inactive),86.9 µM (inactive),> 100 µM (inactive)
CCN(CC(=O)O)C(=O)c1cccnc1,> 100 µM (inactive),,> 100 µM (inactive),,> 100 µM (inactive),,> 100 µM (inactive),> 100 µM (inactive),> 100 µM (inactive),> 100 µM (inactive),> 100 µM (inactive),,> 100 µM (inactive),> 100 µM (inactive),> 100 µM (inactive),> 100 µM (inactive),> 100 µM (inactive),> 100 µM (inactive),> 100 µM (inactive),> 100 µM (inactive)
COC1CC(OC2CCC3(C)C(=CCC4C3C(OC(C)=O)C(OC(=O)CC(C)C)C3(C)C(C(C)=O)CCC43O)C2)OC(C)C1OC1CC(OC)C(OC2CC(OC)C(OC3OC(C)C(OC4OC(CO)C(O)C(O)C4O)C(OC)C3O)C(C)O2)C(C)O1 (stereo not given),> 75 µM (inactive),> 75 µM (inactive),> 75 µM (inactive),> 7.5 µM (inactive),> 75 µM (inactive),> 75 µM (inactive),> 75 µM (inactive),> 75 µM (inactive),,> 75 µM (inactive),> 75 µM (inactive),> 75 µM (inactive),> 75 µM (inactive),> 75 µM (inactive),> 75 µM (inactive),> 75 µM (inactive),> 75 µM (inactive),> 75 µM (inactive),> 75 µM (inactive),> 75 µM (inactive)
FC(F)(F)C1(Cl)C(Cl)(c2ccccc2)C1(Cl)c1ccccc1 (stereo not given),33.7 µM (inactive),17.7 µM (inactive),14.8 µM (inactive),14.9 µM (inactive),14.6 µM (inactive),23.1 µM (inactive),18.6 µM (inactive),16.4 µM (inactive),,15.7 µM (inactive),16.4 µM (inactive),27.7 µM (inactive),14.9 µM (inactive),14.3 µM (inactive),15.2 µM (inactive),17.3 µM (inactive),16.3 µM (inactive),11.9 µM (inactive),15.8 µM (inactive),18.5 µM (inactive)
O=C(c1ccc2ccccc2c1O)N1CCCCC1,28.4 µM (inactive),68.9 µM (inactive),> 100 µM (inactive),> 100 µM (inactive),> 100 µM (inactive),> 100 µM (inactive),> 100 µM (inactive),,,> 100 µM (inactive),> 100 µM (inactive),27.4 µM (inactive),> 100 µM (inactive),32.4 µM (inactive),,> 100 µM (inactive),> 100 µM (inactive),65.8 µM (inactive),> 100 µM (inactive),> 100 µM (inactive)
